Legend:
[1] = Liver exposure: substance level in liver homogenate by LC-MS/MS; type: in vivo; settings: rat, oral, male Wistar rats, 10 mg/kg of body weight, liver dissected after 2 h, read-out: Cmax values in the liver (L)
Description: The liver exposure of the compounds of the invention compared with the corresponding compounds without a hydroxyl function in the 2″ position was investigated in vivo in male Wistar rats. A rat anesthetized with ketamine/midazolam (ketamine 80 mg/kg i.p.+midazolam 5 mg/kg i.p.) undergoes laparotomy in the Linea alba, and then the product is administered intraduodenally. During this it is attempted to prevent direct reflux of the product into the stomach. The animals remain under anesthesia throughout the experiment. At the end of the experiment, after 2 h, the liver is dissected out for determination of the substance. The substance levels in the liver homogenates are determined by LC-MS/MS. For this purpose, initially the proteins are precipitated by adding acetonitrile in the presence of an internal standard. Part of the supernatant is mixed with a suitable buffer, and an aliquot of the mixture is injected. The measurement is evaluated via the peak areas of analyte and internal standard.
Cmax values in the liver (L) after oral administration of 10 mg/kg of body weight

[2] = system: uptake of 14C-cholesterol in the liver (cholesterol absorption); test: Cholesterol absorption test: uptake of 14C-cholesterol in the liver after an oral test meal; type: in vivo, NMRI mice; settings: mouse, dose which halves (50%) the uptake of 14C-cholesterol in the liver relative to control group
Description: Influence on Cholesterol Absorption+^3H-Taurocholic Acid Excretion on the Basis of the Fecal Excretion in Mice, Rats or Hamsters
NMRI mice, Wistar rats, or golden Syrian hamsters (in groups of n=4-6) are kept with a standard diet (Altromin, Lage (Lippe)) in metabolism cages. The animals are fasted from the afternoon before administration of the radioactive tracer (^14C-cholesterol) and adapted to wire grids.
In addition, the animals are labeled with ^3H-TCA (taurocholic acid) s.c. 24 hours before the oral administration of the test meal (^14C-cholesterol in Intralipid® 20, Pharmacia-Upjohn) (e.g. 1 μCi/mouse to 5 μCi/rat).
Cholesterol absorption test: 0.25 ml/mouse Intralipid® 20 (Pharmacia-Upjohn) (spiking with 0.25 μCi ^14C-cholesterol in 0.1 mg of cholesterol) is administered orally by gavage.
Test substances are made up separately in 0.5%/(methylcellulose (Sigma)/5% Solutol (BASF, Ludwigshafen) or a suitable vehicle.
The volume for administration of the test substance is 0.5 ml/mouse. The test substance is administered orally immediately before the test meal (Intralipid with ^14C-cholesterol label) (cholesterol absorption test).
Feces are collected for 24 h: the fecal elimination of ^14C-cholesterol and ^3H taurocholic acid (TCA) is determined after 24 h.
The livers are removed, homogenized and combusted in aliquots in an oximate (model 307, Packard) to determine the amount of ^14C-cholesterol taken up/absorbed.
The amount of ^14C-cholesterol taken up in the liver is evaluated in relation to a control group (vehicle-treated) as a function of the dose of the substance administered. The ED50 values are interpolated from a dose-effect plot as the dose which halves (50%) the uptake of ^14C-cholesterol in the liver relative to a control group.

serum LDL cholesterol = test: Hamster model: serum LDL cholesterol reduction on a cholesterol-supplemented diet; type: in vivo, Syrian hamsters; settings: Mesocricetus auratus, po, once a day by gavage on 12 consecutive days, LDL cholesterol reduction vs placebo-treated controls
Description: Syrian hamsters (in groups of n=5-9) receive a standard diet (ssniff, Soest Germany) supplemented with 0.1% cholesterol.
The test substances are made up in 0.5%/(methylcellulose (Sigma)/5% Solutol (BASF, Ludwigshafen) or another suitable vehicle, and at least three dosages are administered once a day by gavage on 12 consecutive days.
On day 12, the animals are exsanguinated from the aorta under deep anesthesia. The serum is analyzed for total cholesterol, LDL-cholesterol, HDL-cholesterol and triglycerides using standard kits from Roche in accordance with the guidelines of the German Society for Clinical Chemistry.
The ED50 values for LDL cholesterol reduction compared with placebo-treated control animals were calculated using a standard logistic model for the dose-effect plot.

Cmax at 2 h [1] [ng/mL]	Structure (SMILES)	ED50 (liver) [2] [mg/mouse]	ED50 (serum LDL cholesterol) [mg/kg]
300	N.O=C1[C@H](CC[C@H](O)c2ccc(F)cc2)[C@@H](c2ccc(OCCCOS(=O)(=O)O)cc2O)N1c1ccc(F)cc1		
80	O=C1[C@H](CC[C@H](O)c2ccc(F)cc2)[C@@H](c2ccc(OCc3ccc(C[N+]45CCN(CC4)CC5)cc3)cc2O)N1c1ccc(F)cc1.[Br-]		
	C[n+]1ccn(CCCCOc2ccc([C@@H]3C(CC[C@H](O)c4ccc(F)cc4)C(=O)N3c3ccc(F)cc3)c(O)c2)c1.[I-] (stereo in doubt) [Example M, 3-[4-(4-{1-(4-Fluorophenyl)-3-[3-(4-fluorophenyl)-3-hydroxypropyl]-4-oxoazetidin-2-yl}-3-hydroxyphenoxy)butyl]-1-methyl-3H-imidazol-1-ium iodide]	<0.1	
	O=C(OCc1ccc([C@@H]2[C@@H](CC[C@H](O)c3ccc(F)cc3)C(=O)N2c2ccc(F)cc2)c(O)c1)N1CCN(S(=O)(=O)O)CC1 [Example A, Ammonium 4-(4-{1-(4-fluorophenyl)-3-[3-(4-fluorophenyl)-3-hydroxypropyl]-4-oxoazetidin-2-yl}-3-hydroxybenzyloxycarbonyl)piperazine-1-sulfamate]	0.01	0.2
	O=C1C(CC[C@H](O)c2ccc(F)cc2)[C@@H](c2ccc(CN3CCN(S(=O)(=O)O)CC3)cc2O)N1c1ccc(F)cc1 (stereo partly shown) [Example B, Ammonium 4-(4-{1-(4-Fluorophenyl)-3-[3-(4-fluorophenyl)-3-hydroxypropyl]-4-oxoazetidin-2-yl}-3-hydroxybenzyl)piperazine-1-sulfamate]	<0.1	
	C[N+]1(C)CCN(C(=O)OCc2ccc([C@@H]3[C@@H](CC[C@H](O)c4ccc(F)cc4)C(=O)N3c3ccc(F)cc3)c(O)c2)CC1.[I-] [Example C, 4-(4-{1-(4-Fluorophenyl)-3-[3-(4-fluorophenyl)-3-hydroxypropyl]-4-oxoazetidin-2-yl}-3-hydroxybenzyloxycarbonyl)-1,1-dimethylpiperazin-1-ium iodide]	0.1	
	O=C(Nc1ccc([C@@H]2[C@@H](CC[C@H](O)c3ccc(F)cc3)C(=O)N2c2ccc(F)cc2)c(O)c1)N1CCN(S(=O)(=O)O)CC1 [Example E, Ammonium 4-(4-{1-(4-fluorophenyl)-3-[3-(4-fluorophenyl)-3-hydroxypropyl]-4-oxoazetidin-2-yl}-3-hydroxyphenylcarbamoyl)piperazine-1-sulfamate]	<0.01	0.1
	O=C1[C@H](CC[C@H](O)c2ccc(F)cc2)[C@@H](c2ccc(NS(=O)(=O)O)cc2O)N1c1ccc(F)cc1 [Example F, Ammonium (4-[1-(4-fluorophenyl)-3-[3-(4-fluorophenyl)-3-hydroxypropyl]-4-oxoazetidin-2-yl]-3-hydroxyphenyl)sulfamate]	0.3	
	O=C1[C@H](CC[C@H](O)c2ccc(F)cc2)[C@@H](c2ccc(OCCCOS(=O)(=O)O)cc2O)N1c1ccc(F)cc1 [Example K]	<0.01	
	O=C1C(CC[C@H](O)c2ccc(F)cc2)[C@@H](c2ccc(OCc3ccc(C[N+]45CCN(CC4)CC5)cc3)cc2O)N1c1ccc(F)cc1.[Br-] (stereo partly shown) [Example N, 1-[4-(4-{1-(4-Fluorophenyl)-3-[3-(4-fluorophenyl)-3-hydroxypropyl]-4-oxoazetidin-2-yl}-3-hydroxyphenoxymethyl)benzyl]-4-aza-1-azoniabicyclo[2.2.2]octane bromide]	0.01	
	COc1ccc([C@@H]2[C@@H](CC[C@H](O)c3ccc(F)cc3)C(=O)N2c2ccc(CNC(=O)CCCCCCCCCCNC(=O)[C@H](O)[C@@H](O)[C@H](O)[C@H](O)CO)cc2)c(O)c1 [Example O, 11-(2,3,4,5,6-Pentahydroxyhexanoylamino)undecanoic acid 4-[3-[3-(4-fluorophenyl)-3-hydroxypropyl]-2-(2-hydroxy-4-methoxyphenyl)-4-oxoazetidin-1-yl]benzylamide]	<0.01	
	COc1ccc([C@@H]2[C@@H](CC[C@H](O)c3ccc(F)cc3)C(=O)N2c2ccc(CNC(=O)N3CCN(C(=O)C[N+]45CCN(CC4)CC5)CC3)cc2)c(O)c1.[Cl-] [Example P, 1-[2-(4-{4-[3-[3-(4-Fluorophenyl)-3-hydroxypropyl]-2-(2-hydroxy-4-methoxyphenyl)-4-oxoazetidin-1-yl]benzylcarbamoyl}piperazin-1-yl)-2-oxoethyl]-4-aza-1-azoniabicyclo[2.2.2]octane chloride]	0.3	
	O=C(C[N+]12CCN(CC1)CC2)Nc1ccc([C@@H]2[C@@H](CC[C@H](O)c3ccc(F)cc3)C(=O)N2c2ccc(F)cc2)c(O)c1.[I-] [H, 1-[(4-{1-(4-Fluorophenyl)-3-[3-(4-fluorophenyl)-3-hydroxypropyl]-4-oxoazetidin-2-yl}-3-hydroxyphenylcarbamoyl)methyl]-4-aza-1-azoniabicyclo[2.2.2]octane iodide]	0.01	
	O=C(Oc1ccc([C@@H]2[C@@H](CC[C@H](O)c3ccc(F)cc3)C(=O)N2c2ccc(F)cc2)c(O)c1)N1CCN(S(=O)(=O)O)CC1 [I, Ammonium 4-(4-{1-(4-Fluorophenyl)-3-[3-(4-fluorophenyl)-3-hydroxypropyl]-4-oxoazetidin-2-yl}-3-hydroxyphenoxycarbonyl)piperazine-1-sulfamate]	0.01	< 0.1
24300	N.O=C1[C@H](CC[C@H](O)c2ccc(F)cc2)[C@@H](c2ccc(OCCCOS(=O)(=O)O)cc2)N1c1ccc(F)cc1 [reference compound]		
200	O=C1[C@H](CC[C@H](O)c2ccc(F)cc2)[C@@H](c2ccc(OCc3ccc(C[N+]45CCN(CC4)CC5)cc3)cc2)N1c1ccc(F)cc1.[Br-] [reference compound]		

Source: patent US20080274947A1, “Hydroxy-Substituted Diphenylazetidinones for the Treatment of Hyperlipidemia” (SANOFI-AVENTIS DEUTSCHLAND GMBH, priority 2005, published 2008)
